The record followed here is patent publication EP0657459A1, “Thienothiazine derivates, process for their preparation and their use as anti-inflammatory and analgesic agents” (Chemisch Pharmazeutische Forschungsgesellschaft m.b.H., priority 1993, dated 1995).

One assay has as its system Cyclooxygenase. The experiment in a line: Formation of prostaglandin D2 by neutrophils as measure of cyclooxygenase activity (A23187 stimulation, RIA). The format is cell-based, Sprague Dawley Ratten. The protocol: (§1) Die Bildung von Prostaglandin D2 durch Neutrophile wurde als Maß für die Cyclooxygenase-Aktivität verwendet und die Bildung von Leukotrien B4 als Maß für die 5-Lipoxygenase-Aktivität. Männlichen Sprague Dawley Ratten (250-300 g) wurde lamda - Carrageenan 1 mg intraperitoneal (gelöst in 0.5 ml dest. Wasser) injiziert. Nach 16 Stunden wurden die Ratten durch Exposition in Diethylether getötet. 15 ml eiskalte Hanks balanced salt solution (HBSS) wurden i.p. injiziert, die Neutrophilen durch Absaugen geerntet (10 ml), zentrifugiert (5 min, 100g, 4°C), die überstehende Lösung dekantiert und die Zellen in HBSS resuspendiert bei 4 °C bis zu einer Konzentration von 5x10⁶ Zellen/ml. 400 µl Zellsuspension (2x10⁶ Zellen), 0,5µl Verbindung gelöst in DMSO und 49,5 µl HBSS wurden 5 min bei 37°C inkubiert. Dann wurden 50 µl A23187 (2µmol/l Endkonzentration) zugefügt und anschließend wiederum 5 min bei 37°C inkubiert. Die Reaktion wurde durch Zentrifugieren 10000g, 3s gestoppt und die überstehende Flüssigkeit in vorgekühlte Plastikröhrchen übergeführt und vor dem Beginn der Radioimmunoassay-Messung im Eisbad max. 1 h belassen. PGD2 und LTB4 wurde nach Verdünnung mit HBSS mit Hilfe kommerzieller RIA-Kits gemessen. Als Vergleichssubstanz diente 6-Chlor-4-hydroxy-2-methyl-N-(2-pyridyl)-2H-thieno(2,3-e)1,2-thiazin-3carboxamid-1,1-dioxid ("Lornoxicam", Vbg.A)

The target in the next assay is T1, 5-Lipoxygenase (Rattus norvegicus, UniProt P12527).
T1 sequence (P12527 1-673): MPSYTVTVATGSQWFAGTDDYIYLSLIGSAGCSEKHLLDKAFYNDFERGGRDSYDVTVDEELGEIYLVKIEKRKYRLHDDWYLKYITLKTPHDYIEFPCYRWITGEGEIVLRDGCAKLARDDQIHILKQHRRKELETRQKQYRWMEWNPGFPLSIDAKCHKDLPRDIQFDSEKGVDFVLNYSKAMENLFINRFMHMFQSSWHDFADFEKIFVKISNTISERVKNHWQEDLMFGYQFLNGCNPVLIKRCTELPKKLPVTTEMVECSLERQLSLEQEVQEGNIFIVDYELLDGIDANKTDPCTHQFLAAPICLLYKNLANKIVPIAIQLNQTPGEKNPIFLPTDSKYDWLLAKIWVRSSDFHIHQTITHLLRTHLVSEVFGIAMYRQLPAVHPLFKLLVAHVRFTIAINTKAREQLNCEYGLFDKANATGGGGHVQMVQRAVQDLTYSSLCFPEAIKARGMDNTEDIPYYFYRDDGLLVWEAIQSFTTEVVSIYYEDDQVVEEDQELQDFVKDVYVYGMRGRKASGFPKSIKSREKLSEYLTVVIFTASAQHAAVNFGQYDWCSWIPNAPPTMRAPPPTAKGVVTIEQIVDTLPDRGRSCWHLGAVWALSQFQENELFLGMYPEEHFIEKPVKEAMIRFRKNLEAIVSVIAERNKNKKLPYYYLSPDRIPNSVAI
The experiment in a line: Formation of leukotriene B4 by neutrophils as measure of 5-lipoxygenase activity (A23187 stimulation, RIA). The class given is cell-based, Sprague Dawley Ratten. The protocol:
as §1

The mark [1] stands for this setting: rat peritoneal neutrophils (carrageenan-elicited), 2x10⁶ cells, A23187 2 µmol/l, 5 min 37°C, LTB4 by RIA, read-out: IC50 (µmol/l) LTB4.
[2] abbreviates: read-out: IC50 (µmol/l) PGD2, rat peritoneal neutrophils (carrageenan-elicited), 2x10⁶ cells, A23187 2 µmol/l, 5 min 37°C.

Structures are written as SMILES. Like-named read-outs stand apart in the source and are kept apart here.

In the case of `CN1C(C(=O)Nc2ccccn2)=C(O)c2sc(Cl)cc2S1(=O)=O` [A], the IC50 with Cyclooxygenase (rat peritoneal neutrophils (carrageenan-elicited), 2x10⁶ cells, A23187 2 µmol/l, 5 min 37°C, PGD2 by RIA, read-out: IC50 (µmol/l) PGD2) is 0.02 µmol/L; at 5-Lipoxygenase (setting [1]), > 10 µmol/L.
For the compound `CN1C(C(=O)Nc2cccc(-c3cc4ccccc4o3)n2)=C(O)c2sc(Cl)c(Cl)c2S1(=O)=O` [Vbg 5, N-[6-(2-Benzo[b]furyl)-2-pyridinyl]-6,7-dichlor-4-hydroxy-2-methyl-2H-thieno-[2,3-e][1,2]thiazin-3-carboxamid-1,1-dioxid], the IC50 in the assay on Cyclooxygenase (setting [2]) is 0.036 µmol/L; at 5-Lipoxygenase (setting [1]), 1.3 µmol/L.
For `CN1C(C(=O)Nc2cccc(-c3ccc(-c4ccccc4)cc3)n2)=C(O)c2sc(Cl)cc2S1(=O)=O` [Vbg 2, N-[6-(4-Biphenyl)-2-pyridinyl]-6-chlor-4-hydroxy-2-methyl-2H-thieno[2,3-e][1,2]thiazin-3-carboxamid-1,1-dioxid], the IC50 in the assay with Cyclooxygenase (setting [2]) worked out at 3.5 µmol/L; on 5-Lipoxygenase, 1.4 µmol/L.
As for `CN1C(C(=O)Nc2cccc(-c3cccc(Oc4ccc(F)cc4)c3)n2)=C(O)c2sc(Cl)cc2S1(=O)=O` [Vbg 3, 6-Chlor-N-{6-[3-(4-fluorphenoxy)phenyl]-2-pyridinyl}-4-hydroxy-2-methyl-2H-thieno[2,3-e]-1,2-thiazin-3-carboxamid-1,1-dioxid], the IC50 in the assay on Cyclooxygenase (setting [2]) amounted to 0.45 µmol/L; at 5-Lipoxygenase (setting [1]), 1.7 µmol/L.
Regarding `CN1C(C(=O)Nc2cccc(-c3cc4ccccc4s3)n2)=C(O)c2sc(Cl)cc2S1(=O)=O` [Vbg 1, N-[6-(2-Benzo[b]thienyl)-2-pyridinyl]-6-chlor-4-hydrory-2-methyl-2H-thieno[2,3-e][1,2]thiazin-3-carboxamid-1,1-dioxid], the IC50 with Cyclooxygenase (setting [2]) came out at 0.049 µmol/L; on 5-Lipoxygenase (setting [1]), 2 µmol/L.
The corresponding values for `CN1C(C(=O)Nc2cccc(-c3ccc(Oc4ccc(F)cc4)o3)n2)=C(O)c2sc(Cl)cc2S1(=O)=O` [Vbg 4, 6-Chlor-N-{6-[5-(4-fluorphenoxy)-2-furyl]-2-pyridinyl}-4-hydroxy-2-methyl-2H-thieno[2,3-e]-1,2-thiazin-3-carboxamid-1,1-dioxid] are 1.7 µmol/L and 1.3 µmol/L.
